From article PMC11279566, “Novel Coumarin–Nucleobase Hybrids with Potential Anticancer Activity: Synthesis, In Vitro Cell-Based Evaluation, and Molecular Docking” (Pharmaceuticals, 2024)
Read-outs that look alike come from different tables or passages of the source.

Key:
[1] = tested on: human acute T lymphoblastic leukemia cell lines (MOLT-3); parameters: method as in PMID 25078311; details: antiproliferative activity, read-out: IC50 against MOLT3 cell line; cited from earlier work
[2] = tested on: human prostate cancer cell line (DU145); parameters: method as in PMID 23124212; details: read-out: IC50 against DU145 cell line; cited from earlier work
[3] = tested on: human colon carcinoma cells (HCT116); assay: colorimetric MTT cytotoxicity assay, HCT116; assay type: cell-based; details: for IC50: Homo sapiens, HCT-116, MTT, n = 3, compounds as HP-β-CD inclusion complex; for Selectivity Index HCT116 24 h: IC50 of HaCat / IC50 of HCT116, 24 h; for Selectivity Index HCT116 48 h: IC50 of HaCat / IC50 of HCT116, 48 h
Description: (§1) The potential antitumor activity of eight new hybrids was evaluated through colorimetric microculture MTT assay against three tumor cell lines: human colon carcinoma cells (HCT116), human laryngeal tumor cells (Hep-2), and human lung carcinoma cells (A549). The hybridized compounds were also assayed against the non-tumor cell line HaCat (human keratinocyte) in order to obtain an indication of their selective cytotoxicity. Also, the commercial anticancer drug doxorubicin was employed as a positive drug standard to compare the cytotoxicity activities. Each experiment was carried out in triplicate on three different days. The selectivity index (SI) was calculated as the ratio between the IC50 (concentration that reduces cell viability by 50%) of HaCat (non-tumor line) and the IC50 of the tumor lines.
(§2) A total of 1 mL of an ethanolic solution containing compounds 7a,b, 8a,b, 9a,b, or 10a,b (0.004 mol L^−1) was vigorously stirred with 1 mL of an aqueous solution of HP-β-CD (0.004 mol L^−1). The resulting mixture was kept under stirring until a clear solution was obtained. The final solution was concentrated under a vacuum to remove the solvent, and the remaining water was removed by lyophilization to give a water-soluble compound of the HP-β-CD complex in a powder form. The stock solutions of the compounds were prepared by dissolving the complexed compounds in 200 µL of DMSO, followed by dissolving in 1800 µL of Dulbecco’s Modified Eagle Medium (DMEM). The stock solution and dilutions were prepared prior to the cytotoxicity assays.
(§3) The human colon carcinoma (HCT116), human laryngeal tumor (Hep-2), and human lung carcinoma (A549) cell lines, and the non-tumor human keratinocyte cell line (HaCat) were purchased from Rio de Janeiro Cell Bank. The cells were maintained in DMEM supplemented with […]; Life Technologies, Carlsbad, CA, USA) and 1% penicillin–streptomycin in a humidified 5% CO2 atmosphere at 37 °C.
(§4) Cytotoxicity was assayed through the colorimetric microculture MTT assay. Cell suspensions were plated in 96-well plates in triplicate at an initial density of 7 × 10^4 cells mL^−1 and incubated at 37 °C for 24 h. After the incubation, the cells were treated with various concentrations of the evaluated compounds (7a,b, 8a,b, 9a,b, or 10a,b) and incubated for 24 and 48 h. After the treatment, the medium was removed, and an MTT solution (0.4 mg mL^−1) was added to each well and further incubated for 2 h at 37 °C. Then, DMSO (100 µL) was added for the solubilization of the formazan crystals, and the absorbance intensities were measured in a microplate reader (SpectraMax M2e, Molecular Devices, Sunnyvale, CA, USA) at 570 nm. The percentage of viable cells was calculated in relation to the control to determine the cytotoxic concentration that reduces 50% of the cell viability (IC50).

[4] = tested on: human lung carcinoma cells (A549); assay: colorimetric MTT cytotoxicity assay, A549; assay type: cell-based; details: for IC50: Homo sapiens, MTT, n = 3, compounds as HP-β-CD inclusion complex
Description: as §1, §2, §3, §4

[5] = tested on: human laryngeal tumor cells (Hep-2); assay: colorimetric MTT cytotoxicity assay, Hep-2; assay type: cell-based; details: for IC50: Homo sapiens, MTT, n = 3, compounds as HP-β-CD inclusion complex; for Selectivity Index Hep-2 24 h: IC50 of HaCat / IC50 of Hep-2, 24 h
Description: as §1, §2, §3, §4

[6] = tested on: HaCat (human keratinocyte); assay: colorimetric MTT cytotoxicity assay, non-tumor HaCat; assay type: cell-based; details: for IC50: Homo sapiens, HaCat non-tumor line, MTT, n = 3, compounds as HP-β-CD inclusion complex
Description: as §1, §2, §3, §4

[7] = HCT116, 24 h, read-out: IC50 (µM ± SD) HCT116 24 h
[8] = HCT116, 48 h, read-out: IC50 (µM ± SD) HCT116 48 h
[9] = A549, 24 h, read-out: IC50 (µM ± SD) A549 24 h
[10] = A549, 48 h, read-out: IC50 (µM ± SD) A549 48 h
[11] = Hep-2, 24 h, read-out: IC50 (µM ± SD) Hep-2 24 h
[12] = Hep-2, 48 h, read-out: IC50 (µM ± SD) Hep-2 48 h
[13] = 24 h, read-out: IC50 (µM ± SD) HaCat 24 h
[14] = 48 h, read-out: IC50 (µM ± SD) HaCat 48 h

COc1cccc(/C=C/C(=O)c2cccc(-n3cc(COc4cc(=O)oc5ccccc45)nn3)c2)c1OC [A]
IC50 [1]: 0.53 µM

O=C1C(=O)N(CCCn2cc(Cn3ccc(=O)n(Cc4cn(CCCN5C(=O)C(=O)c6ccc(Cl)cc65)nn4)c3=O)nn2)c2cc(Cl)ccc21 [B]
IC50 [2]: 13.9 µM

O=c1ccn(Cc2cn(Cc3cc(=O)oc4cc(O)cc(O)c34)nn2)c(=O)[nH]1 [Compound 7a, 1-((1-((5,7-Dihydroxy-2-oxo-2H-chromen-4-yl)methyl)-1H-1,2,3-triazol-4-yl)methyl) Pyrimidine-2,4(1H,3H)-dione]
IC50 [3, 7]: > 100 µM
IC50 [3, 8]: > 100 µM
IC50 [4, 9]: > 100 µM
IC50 [4, 10]: > 100 µM
IC50 [5, 11]: > 100 µM
IC50 [5, 12]: > 100 µM
IC50 [6, 13]: > 100 µM
IC50 [6, 14]: > 100 µM
melting point: 230 °C (dec.)

Cc1cn(Cc2cn(Cc3cc(=O)oc4cc(O)cc(O)c34)nn2)c(=O)[nH]c1=O [Compound 7b, 1-((1-((5,7-Dihydroxy-2-oxo-2H-chromen-4-yl)methyl)-1H-1,2,3-triazol-4-yl)methyl)-5-methylpyrimidine-2,4(1H,3H)-dione]
IC50 [3, 7]: > 100 µM
IC50 [3, 8]: > 100 µM
IC50 [4, 9]: > 100 µM
IC50 [4, 10]: > 100 µM
IC50 [5, 11]: > 100 µM
IC50 [5, 12]: > 100 µM
IC50 [6, 13]: > 100 µM
IC50 [6, 14]: > 100 µM
melting point: 285 °C (dec.)

O=c1ccn(Cc2cn(Cc3cc(=O)oc4c3ccc3ccccc34)nn2)c(=O)[nH]1 [Compound 8a, 1-((1-((2-Oxo-2H-benzo[h]chromen-4-yl)methyl)-1H-1,2,3-triazol-4-yl)methyl) Pyrimidine-2,4(1H,3H)-dione]
IC50 [3, 7]: > 100 µM
IC50 [3, 8]: > 100 µM
IC50 [4, 9]: > 100 µM
IC50 [4, 10]: > 100 µM
IC50 [5, 11]: > 100 µM
IC50 [5, 12]: > 100 µM
IC50 [6, 13]: > 100 µM
IC50 [6, 14]: > 100 µM
melting point: 235 °C (dec.)

Cc1cn(Cc2cn(Cc3cc(=O)oc4c3ccc3ccccc34)nn2)c(=O)[nH]c1=O [Compound 8b, 1-((1-((2-Oxo-2H-benzo[h]chromen-4-yl)methyl)-1H-1,2,3-triazol-4-yl)methyl)-5-methylpyrimidine-2,4(1H,3H)-dione]
IC50 [3, 7]: 87.6 ± 1.94 µM
IC50 [3, 8]: > 100 µM
Selectivity Index HCT116 24 h [3]: 5
IC50 [4, 9]: > 100 µM
IC50 [4, 10]: > 100 µM
IC50 [5, 11]: > 100 µM
IC50 [5, 12]: > 100 µM
IC50 [6, 13]: 454.1 ± 2.67 µM
IC50 [6, 14]: > 100 µM
melting point: 270 to 272 °C

O=c1cc(Cn2cc(Cn3ccc(=O)n(Cc4cn(Cc5cc(=O)oc6cc(O)cc(O)c56)nn4)c3=O)nn2)c2c(O)cc(O)cc2o1 [Compound 9a, 1,3-Bis((1-((5,7-dihydroxy-2-oxo-2H-chromen-4-yl)methyl)-1H-1,2,3-triazol-4-yl)methyl)pyrimidine-2,4(1H,3H)-dione]
activity compared to doxorubicin (fold) ([3]; HCT116 cell line, IC50 relative to doxorubicin): approximately 20 fold
IC50 [3, 7]: 69.2 ± 1.85 µM
IC50 [3, 8]: 24.2 ± 1.39 µM
Selectivity Index HCT116 48 h [3]: 6
cytotoxicity effect against A549 cells (in words) ([4]; 24 and 48 h treatments): No cytotoxicity effect was observed
IC50 [4, 9]: > 100 µM
IC50 [4, 10]: > 100 µM
IC50 [5, 11]: 51.6 ± 1.71 µM
IC50 [5, 12]: > 100 µM
Selectivity Index Hep-2 24 h [5]: 12
IC50 [6, 13]: 634.9 ± 2.8 µM
IC50 [6, 14]: 142 ± 2.15 µM
cytotoxicity against the non-tumor cells HaCat (in words) ([6]; highest evaluated concentration 100 μM, all exposure times): did not exhibit appreciable cytotoxicity
melting point: 302 °C (dec.)

O=c1cc(Cn2cc(Cn3ccc(=O)n(Cc4cn(Cc5cc(=O)oc6c5ccc5ccccc56)nn4)c3=O)nn2)c2ccc3ccccc3c2o1 [Compound 9b, 1,3-Bis((1-((2-oxo-2H-benzo[h]chromen-4-yl)methyl)-1H-1,2,3-triazol-4-yl)methyl)pyrimidine-2,4(1H,3H)-dione]
IC50 [3, 7]: 54.5 ± 1.74 µM
IC50 [3, 8]: 59.2 ± 1.77 µM
Selectivity Index HCT116 24 h [3]: 19
Selectivity Index HCT116 48 h [3]: 55
IC50 [4, 9]: > 100 µM
IC50 [4, 10]: 51 ± 1.71 µM
Selectivity Index A549 48 h ([4]; IC50 of HaCat / IC50 of A549, 48 h): 63
cytotoxicity for Hep-2 cells (in words) [5]: No appreciative cytotoxicity was observed
IC50 [5, 11]: > 100 µM
IC50 [5, 12]: > 100 µM
IC50 [6, 13]: 1049 ± 3.02 µM
IC50 [6, 14]: 3228 ± 3.5 µM
melting point: 193 to 195 °C

Cn1cnc2c1c(=O)n(Cc1cn(Cc3cc(=O)oc4cc(O)cc(O)c34)nn1)c(=O)n2C [Compound 10a, 1-((1-((5,7-Dihydroxy-2-oxo-2H-chromen-4-yl)methyl)-1H-1,2,3-triazol-4-yl)methyl)-3,7-dimethyl-3,7-dihydro-1H-purine-2,6-dione]
IC50 [3, 7]: 78.3 ± 1.89 µM
IC50 [3, 8]: > 100 µM
Selectivity Index HCT116 24 h [3]: 4
IC50 [4, 9]: > 100 µM
IC50 [4, 10]: > 100 µM
IC50 [5, 11]: 56.6 ± 1.75 µM
IC50 [5, 12]: > 100 µM
Selectivity Index Hep-2 24 h [5]: 5
IC50 [6, 13]: 307.8 ± 2.49 µM
IC50 [6, 14]: > 100 µM
melting point: 315 °C (dec.)

Cn1cnc2c1c(=O)n(Cc1cn(Cc3cc(=O)oc4c3ccc3ccccc34)nn1)c(=O)n2C [Compound 10b, 3,7-Dimethyl-1-((1-((2-oxo-2H-benzo[h]chromen-4-yl)methyl)-1H-1,2,3-triazol-4-yl)methyl)-3,7-dihydro-1H-purine-2,6-dione]
IC50 [3, 7]: 41 ± 1.61 µM
IC50 [3, 8]: 84.7 ± 1.92 µM
Selectivity Index HCT116 24 h [3]: 6
IC50 [4, 9]: > 100 µM
IC50 [4, 10]: > 100 µM
IC50 [5, 11]: > 100 µM
IC50 [5, 12]: > 100 µM
IC50 [6, 13]: 263.3 ± 2.42 µM
IC50 [6, 14]: 120 ± 2.08 µM
melting point: 288 to 290 °C

COc1cccc2c1C(=O)c1c(O)c3c(c(O)c1C2=O)C[C@@](O)(C(=O)CO)C[C@@H]3O[C@H]1C[C@H](N)[C@H](O)[C@H](C)O1 [Doxorubicin, doxorubicin, reference compound]
IC50 [3, 8]: 1.23 ± 0.05 µM
IC50 [5, 12]: 1.69 ± 0.15 µM
IC50 [6, 14]: 39.3 ± 1.59 µM
